# From article PMC4900628, “Critical Evaluation of P2X7 Receptor Antagonists in Selected Seizure Models” (PLoS ONE, 2016)
# Structures can show the parent of a compound that is named as a salt.
# Tests used:
# mouse P2X7R = target: T1, mouse P2X7R (Mus musculus, UniProt Q9Z1M0); test: fluorometric Ca2+ assay (ATP-induced [Ca2+]i response) in HEKmP2X7 cells; format: cell-based; conditions: fluo-4, 1 mM ATP, read-out: Potency IC50 ± SEM, Mouse P2X7R
# T1 construct: expressed in transfected cells
# T1 sequence (Q9Z1M0 1-595): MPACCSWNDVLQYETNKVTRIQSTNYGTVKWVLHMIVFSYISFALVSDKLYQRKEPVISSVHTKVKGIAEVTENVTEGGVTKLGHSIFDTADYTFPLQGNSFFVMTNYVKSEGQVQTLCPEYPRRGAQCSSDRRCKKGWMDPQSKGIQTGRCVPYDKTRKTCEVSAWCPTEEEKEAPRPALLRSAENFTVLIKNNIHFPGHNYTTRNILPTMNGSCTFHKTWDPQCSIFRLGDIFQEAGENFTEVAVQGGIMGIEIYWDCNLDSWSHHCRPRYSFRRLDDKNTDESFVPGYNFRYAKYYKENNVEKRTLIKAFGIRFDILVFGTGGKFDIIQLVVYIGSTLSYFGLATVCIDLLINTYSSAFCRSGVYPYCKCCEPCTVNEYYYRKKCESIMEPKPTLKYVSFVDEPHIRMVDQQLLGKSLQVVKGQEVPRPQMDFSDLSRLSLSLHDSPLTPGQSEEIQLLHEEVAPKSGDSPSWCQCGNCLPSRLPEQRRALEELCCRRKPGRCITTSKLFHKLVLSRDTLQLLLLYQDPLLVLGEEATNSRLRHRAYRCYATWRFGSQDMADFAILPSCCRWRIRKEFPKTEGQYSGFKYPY
# Method: (§1) Cells were grown in a humidified incubator at 37°C in an atmosphere supplemented with 5% CO2. […] HEK293mP2X7 were cultured in DMEM under similar conditions as described above, but containing 100 μg/ml zeocin (Invitrogen). […] Expression of the transgene was induced by supplementing the medium with 1 μg/ml tetracycline (Sigma-Aldrich, Taufkirchen, Germany) 24 h prior to the experiments. All fluorometric Ca^2+ assays in cell suspensions were performed in 384-microwell plates (Corning, No. 3655, Lowell, MA, USA) with a fluorescence-imaging microplate reader (POLARstar Omega, BMG Labtech, Offenburg, Germany) (for details, see [61, 68]). […] Microwell plates were repetitively scanned every 16 s in the fast scanning mode of the device. […] Data were normalized to the baseline values before ATP application (F/F0). […] ATP-solution was freshly prepared in Mg^2+-free HBS solution and adjusted to pH 7.4. Aliquots of stock solutions were stored at -20°C and freshly diluted with the appropriate HBS solution. […] Results are expressed as mean ± SEM. […] In the PTZ-T, the number of animals in the group with clonic seizures and the latency time were analysed using Fisher's exact probability test and the Mann-Whitney rank sum test, respectively. For multiple comparisons of the latency time a one-way ANOVA with the Holm-Sidak post hoc test was used. The influence of AFC on the plasma and brain concentrations of the antiepileptic drugs was statistical compared using the same procedure. In the PTZ-kindling model, the mean seizure stage within a group was calculated in relation to the number of PTZ-injections. Statistical comparison between vehicle- and compound-treated groups in this model was performed with two-way repeated measures ANOVA, followed by the Holm-Sidak post hoc test. […] In fully kindled rats, the calculated mean seizure stage within a group after vehicle- and compound-treatment were compared using a paired t-test. P < 0.05 was the accepted minimum level of significance.
# rat P2X7R = target: T2, rat P2X7R (Rattus norvegicus, UniProt Q64663); test: fluorometric Ca2+ assay (ATP-induced [Ca2+]i response) in HEKrP2X7 cells; format: cell-based; conditions: HEKrP2X7 cells, fluo-4, 1 mM ATP; read-out: Potency IC50 ± SEM, Rat P2X7R
# T2 construct: expressed in transfected cells; host or cells: HEK293 Flp-In T-REx (HEKrP2X7), tetracycline-induced
# T2 sequence (Q64663 1-595): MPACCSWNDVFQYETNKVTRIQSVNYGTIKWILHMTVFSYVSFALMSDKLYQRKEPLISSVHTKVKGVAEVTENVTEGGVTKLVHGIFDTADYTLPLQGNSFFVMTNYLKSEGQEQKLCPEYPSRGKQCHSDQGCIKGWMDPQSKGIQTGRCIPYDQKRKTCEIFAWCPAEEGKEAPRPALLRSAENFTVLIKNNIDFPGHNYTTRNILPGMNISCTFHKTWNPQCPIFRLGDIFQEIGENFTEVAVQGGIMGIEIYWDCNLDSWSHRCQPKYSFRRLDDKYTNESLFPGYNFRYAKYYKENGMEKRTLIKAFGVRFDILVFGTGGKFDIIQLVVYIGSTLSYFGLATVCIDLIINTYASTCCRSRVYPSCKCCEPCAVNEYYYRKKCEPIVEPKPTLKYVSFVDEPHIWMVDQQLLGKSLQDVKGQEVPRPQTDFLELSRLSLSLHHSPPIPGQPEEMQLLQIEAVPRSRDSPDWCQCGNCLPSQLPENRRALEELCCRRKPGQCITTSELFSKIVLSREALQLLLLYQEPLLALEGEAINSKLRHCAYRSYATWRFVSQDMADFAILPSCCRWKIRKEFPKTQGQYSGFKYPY
# Method: as §1
# human P2X7R = target: T3, human P2X7R (Homo sapiens, UniProt Q99572); test: fluorometric Ca2+ assay (ATP-induced [Ca2+]i response) in HEKhP2X7 cells; format: cell-based; conditions: fluo-4, 1 mM ATP, read-out: Potency IC50 ± SEM, Human P2X7R
# T3 construct: expressed in transfected cells
# T3 sequence (Q99572 1-595): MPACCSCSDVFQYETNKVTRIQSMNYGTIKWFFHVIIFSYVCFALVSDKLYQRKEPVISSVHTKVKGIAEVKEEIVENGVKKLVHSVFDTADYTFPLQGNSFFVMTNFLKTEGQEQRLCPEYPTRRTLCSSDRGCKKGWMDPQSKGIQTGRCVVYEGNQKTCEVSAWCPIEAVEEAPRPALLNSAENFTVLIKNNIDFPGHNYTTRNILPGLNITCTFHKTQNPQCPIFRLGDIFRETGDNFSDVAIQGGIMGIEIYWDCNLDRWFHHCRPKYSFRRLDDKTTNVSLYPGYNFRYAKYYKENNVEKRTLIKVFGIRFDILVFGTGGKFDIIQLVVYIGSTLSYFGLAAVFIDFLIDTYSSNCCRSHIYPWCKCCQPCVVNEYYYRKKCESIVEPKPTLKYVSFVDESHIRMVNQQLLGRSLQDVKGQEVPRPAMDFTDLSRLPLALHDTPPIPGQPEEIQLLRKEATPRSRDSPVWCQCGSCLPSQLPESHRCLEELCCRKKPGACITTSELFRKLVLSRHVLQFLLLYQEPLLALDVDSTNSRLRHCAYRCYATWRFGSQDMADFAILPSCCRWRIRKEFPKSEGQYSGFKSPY
# Method: as §1
# [1] = system: PTZ-induced seizures in fully PTZ-kindled rats; test: PTZ-induced seizures in fully kindled rats; format: in vivo; conditions: fully kindled rats; 100 mg/kg i.p.; pre-drug (vehicle) value 4.0
# Source text: Results were expressed as mean seizure stages of a tested group in which the seizure behaviour after vehicle treatment (vehicle seizure stage) and after compound treatment (compound seizure stage), examined 3-4 days later, was matched. For comparison, the effectiveness of two antiepileptic drugs (carbamazepine and valproate) was also investigated. […] Chemicals, Toronto, Canada) was slowly added. The pH was adjusted with 1N NaOH (similar amount of NaOH as HCl), all with continuous stirring. […] The drug solutions or suspensions were prepared immediately before use; all doses refer to the salts. Animals in the control group received equivalent volumes of the vehicle (in mice always 10 ml/kg, in rats 1 ml/kg [JNJ], 3 ml/kg [AFC] or 4 ml/kg [BBG, TIIAS], depending on the solubility of the different compounds). Doses and peak time effects were selected on the basis of effective doses from corresponding in vivo studies in the literature: BBG (e.g.), tanshinone IIA (e.g.) and from manufacturer's experimental data: AFC, JNJ (see, [80]). Data were analysed using SigmaPlot (vers. 12.0, Systat Software, Erkrath, Germany) and SPSS (IBM SPSS Statistics 20, […], Germany), respectively. Results are expressed as mean ± SEM. […] In the MES-T, the current intensity inducing tonic hindlimb extensions in 50% of the mice (CC50 values with confidence limits for 95% probability) and the statistical significance was calculated using Probit analysis (SPSS). […] In the PTZ-T, the number of animals in the group with clonic seizures and the latency time were analysed using Fisher's exact probability test and the Mann-Whitney rank sum test, respectively. For multiple comparisons of the latency time a one-way ANOVA with the Holm-Sidak post hoc test was used. The influence of AFC on the plasma and brain concentrations of the antiepileptic drugs was statistical compared using the same procedure. In the PTZ-kindling model, the mean seizure stage within a group was calculated in relation to the number of PTZ-injections. Statistical comparison between vehicle- and compound-treated groups in this model was performed with two-way repeated measures ANOVA, followed by the Holm-Sidak post hoc test. The mean number of PTZ-injections needed to produce the first generalized seizure (≥ stage 3 convulsions) in the vehicle- versus compound-treated groups was statistically compared using a Mann-Whitney rank sum test. In fully kindled rats, the calculated mean seizure stage within a group after vehicle- and compound-treatment were compared using a paired t-test. P < 0.05 was the accepted minimum level of significance.
Structure (SMILES),IC50 (mouse P2X7R) [µM],IC50 (rat P2X7R) [µM],IC50 (human P2X7R) [µM],"mean seizure stage, post-drug [1]"
"Clc1cccc(-c2nnnn2Cc2cccnc2)c1Cl [A-438079, 3-[[5-(2,3-dichlorophenyl)-1H-tetrazol-1yl]methyl]pyridine hydrochloride hydrate]",0.28 ± 0.02,0.22 ± 0.01,0.07 ± 0.009,–
"O=C(CC12CC3CC(CC(C3)C1)C2)Nc1cccc2nc(NCCNCCO)ccc12 [AZ-10606120, N-[2-[[2-[(2-hydroxyethyl)amino]ethyl]amino]-5-quinolinyl]-2-tricyclo[3.3.1.13,7]dec-1-ylacetamide dihydrochloride]",0.12 ± 0.005,0.02 ± 0.002,–,–
"CCCC(CCC)C(=O)O [Ca-valproate, Ca-valproate dihydrate]",–,–,–,1.1
